Patent publication US6916843B1, “Anti-inflammatory actions of cytochrome P450 expoxygenase-derived eicosanoids” (The United States of America as represented by the …, priority 1999, dated 2005)

Experiments:
VCAM-1 promoter = VCAM-1 promoter construct activity in transiently transfected bovine aortic endothelial cells; assay type: cell-based
Text: To localize cis-acting elements in the VCAM-1 promoter that might mediate the inhibitory effects of [11,12]-EET, we transiently transfected bovine aortic endothelial cells with a -755 bp VCAM-1 promoter construct (DeCaterina et al., 96 J. Clin. Invest. 60 (1995)). Stimulation with TNF-α induced a 13-fold increase in relative VCAM-1 promoter activity that was abolished by cotreatment with [11,12]-EET. […] To confirm that the tandem κB sites in the VCAM-1 promoter are repressed by [11,12]-EET we subcloned them into a heterologous promoter construct containing the SV40 enhancer linked to the luciferase reporter gene (pκB.Luc). Stimulation of transfected endothelial cells with TNF-α induced a 6-fold increase in pκB.Luc promoter activity that was abolished by co-treatment with [11,12]-EET, but not [14,15]-EET (FIG. 2C). […] Compared to transfection with the empty pcDNA3.1 vector, overexpression of CYP2J2 decreased TNF-induced VCAM-1 and pκB.Luc promoter activity by 70-80% which were reversed in the presence of SK[…] (FIG. 2C). Neither transfection with CYP2J2 cDNA alone nor treatment with SK[…] alone affected basal promoter activity.

E-selectin expression = test: Cell-surface enzyme immunoassay of TNF-α-induced E-selectin expression in endothelial cells; assay type: cell-based, human; settings: 100 nM, TNF-α 10 ng/ml
Procedure: (§1) FIG. 2 is a set of bar graphs of cell-surface enzyme immunoassays. […] The difference between treatment with TNF-α alone and in the presence of [11,12]-EET were statistically significant (*p<0.05, **p<0.01), OD, optical density. […] After stimulation with TNF-α (10 ng/ml) in the presence or absence of EET, promoter activity was determined relative to basal activity. *p<0.01 vs. TNF-α alone.
(§2) To determine the biological effects of EETs, we treated tumor necrosis factor alpha (TNF-α)-stimulated human endothelial cells with physiological relevant concentrations (1-100 nM) of [5,6]-EET, [8,9]-EET, [11,12]-EET, [14,15]-EET, [11,12]-DHET.

VCAM-1 expression = test: Cell-surface enzyme immunoassay of cytokine-induced VCAM-1 expression in endothelial cells; assay type: cell-based, human; settings: human endothelial cells, 1-100 nM
Procedure: as §1, §2

[1] = system: bovine aortic endothelial cells (BAECs); test: Hypoxia-reoxygenation-induced cell injury in BAECs (cell number, LDH release, trypan blue); assay type: cell-based
Procedure: Effects of P450-derived arachidonic acid metabolites on hypoxia-reoxygenalion-induced injury in BAECs. BAECs, either untransfected, or 48 hours after transfection with pcDNA3.1/GFP or pcDNA3.1/CYP2J2, or 10 min after treatment with eicosanoids, epoxide hydrolase inhibitors or vehicle, were exposed to hypoxia (95% nitrogen plus 5% carbon dioxide) for 24 hours, followed by reoxygenation (95% air plus 5% carbon dioxide) for 4 hours using an environmental chamber within a 37° C. incubator. Cells maintained under continuous (28 hours) normoxic conditions served as controls.
EETs were prepared by total chemical synthesis as previously described (Corey el al., 102 J. Am. Chem. Soc. 1433-1435 (1980), Falck et al., 23 Tetrahedron Lett. 1755-1756 (1982)). DHETs were prepared by chemical hydration of EETs as described by Capdevila et al., 187 Methods Enzymol. 386-394 (1990). Synthetic EETs and DHETs were purified by reverse-phase HPLC prior to use. BAECs, grown to ˜85% confluency, were treated with either synthetic [11,12]-EET, [11,12]-DHET, or [14,15]-EET in ethanol vehicle (1 μmol/L each, final concentration) for 10 min prior to exposure to hypoxia-reoxygenation. […] Cells treated with vehicle alone served as controls.
After hypoxia-reoxygenation, the cell number was determined using a hemocytometer and the degree of cell injury was assessed by measuring lactate dehydrogenase release into the culture medium using the CytoTox 96 Non-Radioactive Cytotoxicity Assay Kit (Promega, Madison, Wis.) and by counting the number of trypan blue dye stained cells. Data are expressed as a percentage of values obtained from control cells maintained under normoxic conditions.

NF-κB = NF-κB heterologous promoter (pκB.Luc) luciferase reporter in bovine endothelial cells; assay type: cell-based
Procedure: as §1
To localize cis-acting elements in the VCAM-1 promoter that might mediate the inhibitory effects of [11,12]-EET, we transiently transfected bovine aortic endothelial cells with a −755 bp VCAM-1 promoter construct (DeCaterina et al., 96 J. Clin. Invest. 60 (1995)). Stimulation with TNF-α induced a 13-fold increase in relative VCAM-1 promoter activity that was abolished by cotreatment with [11,12]-EET. […] To confirm that the tandem κB sites in the VCAM-1 promoter are repressed by [11,12]-EET we subcloned them into a heterologous promoter construct containing the SV40 enhancer linked to the luciferase reporter gene (pκB.Luc). Stimulation of transfected endothelial cells with TNF-α induced a 6-fold increase in pκB.Luc promoter activity that was abolished by co-treatment with [11,12]-EET, but not [14,15]-EET (FIG. 2C). […] Compared to transfection with the empty pcDNA3.1 vector, overexpression of CYP2J2 decreased TNF-induced VCAM-1 and pκB.Luc promoter activity by 70-80% which were reversed in the presence of SKF525A (FIG. 2C). Neither transfection with CYP2J2 cDNA alone nor treatment with SKF525A alone affected basal promoter activity.

endogenous EET levels = test: Endogenous EET levels in BAECs (gas chromatography/mass spectrometry); assay type: cell-based, bovine; settings: CYP2J2 transfection vs control BAECs
Text: In addition to the cyclooxygenase and lipoxygenase pathways, the P450 monooxygenase pathway is an important member of the cardiac arachidonic acid metabolic cascade (Wu et al., 272 J. Biol. Chem 12551 (1997)).

[2] = overexpression vs empty pcDNA3.1 vector
[3] = CYP2J2-transfected vs GFP-transfected BAECs

Row | Compound | effect on TNF-α-induced VCAM-1 promoter activity, −755 bp construct (VCAM-1 promoter; cotreatment with TNF-α (13-fold increase)) | inhibition of E-selectin expression (E-selectin expression) | inhibition of TNF-α-induced VCAM-1 expression (rank/words) (VCAM-1 expression; TNF-α) | maximal inhibition of TNF-α-induced VCAM-1 expression (VCAM-1 expression; TNF-α 10 ng/ml) [%] | hypoxia-reoxygenation-induced cell injury, number of trypan blue stained cells ([1]; 1 μmol/L, added 10 min prior to hypoxia (24 h hypoxia, 4 h reoxygenation)) | effect on TNF-α-induced pκB.Luc promoter activity (NF-κB; 100 nM, TNF-α 10 ng/ml (6-fold increase)) | increase of endogenous EET levels (endogenous EET levels) | decrease of TNF-induced VCAM-1 promoter activity (VCAM-1 promoter; [2]) | cell number after hypoxia-reoxygenation [1, 3] | lactate dehydrogenase released into culture medium after hypoxia-reoxygenation [1, 3] | trypan blue stained cells after hypoxia-reoxygenation [1, 3] | decrease of TNF-induced pκB.Luc promoter activity (NF-κB; [2])
1 | CCCCC/C=C\C[C@H]1O[C@H]1C/C=C\C/C=C\CCCC(=O)O [[11,12]-EET] | abolished | inhibited | most effective | 75 | significantly attenuates | abolished | – | – | – | – | – | –
2 | CYP2J2: CYP2J2 cDNA (1.9 kb) subcloned into plasmid pcDNA3.1, transfected into endothelial cells | – | – | – | – | – | – | approximately 30% | 70-80% | slightly increased | significantly less | significantly fewer | 70-80%
